Reference: PMC12006963, “Application of Deuterium in an M1 Positive Allosteric Modulator Back-Up Program: The Discovery of VU6045422” (ACS Chemical Neuroscience, 2025)
Like-named read-outs stand apart in the source and are kept apart here.

How the values were obtained:
rM1 = target: T1, rM1 (Rattus norvegicus, UniProt P08482); assay: Calcium mobilization, rat M1 (agonist and PAM modes); format: cell-based
T1 sequence (P08482 1-460): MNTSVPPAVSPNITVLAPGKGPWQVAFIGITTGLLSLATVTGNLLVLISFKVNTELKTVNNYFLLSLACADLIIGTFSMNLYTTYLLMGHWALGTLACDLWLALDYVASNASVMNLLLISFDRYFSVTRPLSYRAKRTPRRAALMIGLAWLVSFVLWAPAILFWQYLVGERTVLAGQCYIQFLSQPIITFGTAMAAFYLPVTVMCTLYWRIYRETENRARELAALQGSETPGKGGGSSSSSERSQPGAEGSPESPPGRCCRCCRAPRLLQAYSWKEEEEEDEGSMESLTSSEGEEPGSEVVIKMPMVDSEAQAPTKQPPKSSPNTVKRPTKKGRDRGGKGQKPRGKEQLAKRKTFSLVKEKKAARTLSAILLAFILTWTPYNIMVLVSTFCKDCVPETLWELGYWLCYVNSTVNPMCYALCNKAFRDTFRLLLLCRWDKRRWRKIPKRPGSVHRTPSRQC

[1] = Plasma protein binding, equilibrium dialysis (rat); format: in vitro ADME; conditions: pH 7.4, read-out: fu,plasma
Description: (§1) page 5: Drug Metabolism Methods: In vitro Plasma protein binding and Brain homogenate binding: Determination of fraction unbound (f u) in plasma was conducted in vitro via equilibrium dialysis using HTDialysis (HTD) membrane plates. The top half of the plate was filled with 100 uL of Dubelco’s Phosphate Buffered Saline, pH 7.4 (DPBS). Compounds were diluted into plasma from each species (5 µM final concentration), which was aliquoted in triplicate to the ‘bottom half’ of the prepared HTD plate wells. The HTD plate was sealed and incubated for 6 hours at 37 °C. Following incubation, each well (both top and bottom halves) were transferred (20 µL) to the corresponding wells of a 96- shallow-well (V-bottom) plate. The daughter plates were then matrix-matched (DPBS side wells received equal volume of plasma, and plasma side wells received equal volume of DPBS), and extraction solution (120 µL; acetonitrile containing 50 nM carbamazepine as IS) was added to all wells of both daughter plates to precipitate protein and extract test article. The plates were then sealed and centrifuged (3500 rcf) for 10 minutes at ambient temperature. Supernatant (60 µL) from each well of the daughter plates was then transferred to the corresponding wells of new daughter plates (96-shallow-well, V bottom) containing water (Milli-Q, 60 µL/well), and the plates were sealed in preparation for LC-MS/MS analysis (see LC-MS/MS analysis method below). The unbound fraction (f u) was calculated following the equation below, and mean values for each species were calculated from 3 replicates. […] Fraction unbound for both plasma and brain samples was determined using Equation 4. f = Concbuffer u Concplasma Equation 4 Determination of fraction unbound in plasma. […]

[2] = Plasma protein binding, equilibrium dialysis (dog); format: in vitro ADME; conditions: pH 7.4, read-out: fu,plasma
Description: as §1

[3] = Plasma protein binding, equilibrium dialysis (cyno); format: in vitro ADME; conditions: cynomolgus monkey, pH 7.4, read-out: fu,plasma
Description: as §1

P-gp (MDR1) = target: T2, P-gp (MDR1) (Homo sapiens, UniProt P08183); assay: MDCK-MDR1 monolayer permeability and efflux; format: in vitro ADME; design: dose or concentration left out as unconfirmed; conditions: dog; for Papp at 2 h: MDCK-MDR1; for efflux ratio at 2 h: MDCK-MDR1 efflux ratio, read-out: P-gp ER
T2 construct: host or cells: MDR1-MDCK cell monolayers
T2 sequence (P08183 whole entry): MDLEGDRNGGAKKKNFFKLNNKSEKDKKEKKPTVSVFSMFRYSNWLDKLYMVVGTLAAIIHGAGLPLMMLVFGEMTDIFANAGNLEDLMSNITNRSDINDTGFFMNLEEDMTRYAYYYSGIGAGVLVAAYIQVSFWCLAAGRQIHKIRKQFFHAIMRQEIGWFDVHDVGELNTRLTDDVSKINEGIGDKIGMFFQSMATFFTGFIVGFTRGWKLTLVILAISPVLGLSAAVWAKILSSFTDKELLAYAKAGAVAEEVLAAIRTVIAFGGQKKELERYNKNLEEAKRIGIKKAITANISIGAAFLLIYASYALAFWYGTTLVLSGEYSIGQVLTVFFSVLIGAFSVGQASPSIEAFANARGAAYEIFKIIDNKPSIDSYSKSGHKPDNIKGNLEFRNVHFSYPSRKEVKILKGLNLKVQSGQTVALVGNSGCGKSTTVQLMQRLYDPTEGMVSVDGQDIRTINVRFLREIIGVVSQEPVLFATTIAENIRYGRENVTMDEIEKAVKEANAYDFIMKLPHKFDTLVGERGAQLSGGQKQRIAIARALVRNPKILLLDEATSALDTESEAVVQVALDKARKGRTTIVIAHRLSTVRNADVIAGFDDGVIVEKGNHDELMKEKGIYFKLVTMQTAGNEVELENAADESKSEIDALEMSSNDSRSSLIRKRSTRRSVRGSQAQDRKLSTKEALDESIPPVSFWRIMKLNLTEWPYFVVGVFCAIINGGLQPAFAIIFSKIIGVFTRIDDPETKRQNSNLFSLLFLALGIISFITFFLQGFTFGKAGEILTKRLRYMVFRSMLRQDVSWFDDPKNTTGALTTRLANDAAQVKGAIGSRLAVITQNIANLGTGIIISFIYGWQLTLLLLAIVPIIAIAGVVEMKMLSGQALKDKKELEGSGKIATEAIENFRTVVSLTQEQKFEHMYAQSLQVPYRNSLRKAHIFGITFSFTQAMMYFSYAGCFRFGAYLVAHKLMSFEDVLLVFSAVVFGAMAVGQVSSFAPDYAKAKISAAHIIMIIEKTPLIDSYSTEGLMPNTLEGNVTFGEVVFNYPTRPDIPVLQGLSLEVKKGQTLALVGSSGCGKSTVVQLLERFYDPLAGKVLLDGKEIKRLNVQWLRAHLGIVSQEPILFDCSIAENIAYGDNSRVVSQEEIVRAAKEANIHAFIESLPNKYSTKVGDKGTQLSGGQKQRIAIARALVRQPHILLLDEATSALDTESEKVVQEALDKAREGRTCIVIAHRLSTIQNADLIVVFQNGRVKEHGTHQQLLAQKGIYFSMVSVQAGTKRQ
Description: page 9: Brain plasma concentration ratio (Kp) was calculated by dividing brain concentration by plasma concentration for each animal. Unbound brain to unbound plasma concentration ratio (Kp,uu) is calculated using the following formula: Kp,uu = (Brain ng/g x brain fu)/(plasma ng/ml x plasma fu). Pharmacokinetic profiles in rats following oral single escalating doses Single escalating oral dosing in Sprague-Dawley rats was performed at Frontage Laboratories according to their non-GLP Standard Operating Procedure and IACUC protocols. In short, compounds were formulated in 10% Tween 80 in water and dosed at 10 mg/kg. At different times, arterial blood was collected from a femoral artery catheter, and compound concentration was determined in plasma by LC-MS/MS following their non-GLP protocol. PK parameters were determined using Phoenix WinNonlin software (version 6.3). In-vitro determination of blood-brain barrier penetration potential Blood-brain barrier penetration was determined using MDR1-MDCK cell monolayers by Absorption Systems, following their protocol. In short, compounds were incubated […] final concentration on one side of the cell monolayer for 2 hours. Compounds concentration on either side of the monolayer was determined by LC-MS/MS and apparent permeability and efflux ratio were determined as described in Wang, Q. et al.1 Behavioral Manifestations of Seizure Activity To evaluate induction of behavioral manifestation of seizure activity, C57Bl/6 mice received administration of vehicle or 100 mg/kg M1 PAM 5. Compound was formulated in 30% Captisol (pH 7.0) at a concentration of 10 mg/mL and injected i.p. at 10 ml/kg (n = 4). Animals were monitored continuously and scored for behavioral manifestations of seizure activity at 5, 15, 30 min, and 1 h. Behavioral manifestations of seizures were scored using a modified Racine scoring system. Briefly, a score of 0 represents no behavior alterations; score 1, immobility, mouth and facial movements, or facial clonus; score 2, head nodding, tail extension; score 3, forelimb clonus, repetitive movements; score 4, rearing and tonic clonic seizure; and score 5, continuous rearing and falling, severe generalized tonic clonic seizure. Novel Object Recognition Task S9

[4] = Hepatocyte metabolite identification (human); format: in vitro ADME; conditions: human hepatocytes, 4 h incubation
Description: Prior to full characterization of deuterated analogues 3 and 5, they were incubated in rat, dog, monkey, and human hepatocytes, along with 1, to determine the amount of parent remaining, as well as the degree of undesired oxidative metabolites 2, 4, and 6 (Figure 2). […] For the gem-dideutero congener 3, metabolic stability was improved in vitro. […] Thus, in hepatocytes in vitro, the kinetic isotope effect engendered greater metabolic stability of the labile hot spot on the lactam. It remained to be seen if this effect would translate in vivo, but we first had to assess the impact of the deuterated analogues on molecular pharmacology, in vitro DMPK, standard low-dose in vivo DMPK and, if warranted, in vivo efficacy in a rat novel object recognition (NOR) behavioral assay.

[5] = PAM mode, read-out: rM1 PAM EC50
[6] = agonist mode, read-out: rM1 Agonist EC50

**Q.** What does the source list for Cn1cc2c(-c3cc(F)c(CN4Cc5ncccc5C4=O)c(F)c3)cccc2n1 [compound 1]?
**A.** rM1 PAM AChmax (%) (rM1): 79%; EC50 (rM1; [5]): 213 nM; EC50 (rM1; [6]): > 30000 nM; fraction unbound at 6 h, 5 µM [1]: 0.028; fraction unbound at 6 h, 5 µM [2]: 0.076; fraction unbound at 6 h, 5 µM [3]: 0.059; Papp at 2 h (P-gp (MDR1)): 31.1 ×10⁻⁶ cm/s; efflux ratio at 2 h (P-gp (MDR1)): 1.8; % Total Peak Area, parent remaining [4]: 65.1%

**Q.** Which “rM1 PAM AChmax (%)” value (rM1) does the source give for [2H]C1([2H])c2ncccc2C(=O)N1Cc1c(F)cc(-c2cccc3nn(C)cc23)cc1F [compound 3] here?
**A.** 85%

**Q.** And the EC50 (rM1; [5])?
**A.** 361 nM

**Q.** And the EC50 (rM1; [6])?
**A.** > 30000 nM

**Q.** What about the fraction unbound at 6 h, 5 µM [1] of the same compound?
**A.** 0.034

**Q.** And the fraction unbound at 6 h, 5 µM [2]?
**A.** 0.082

**Q.** What about the fraction unbound at 6 h, 5 µM [3] of the same compound?
**A.** 0.039

**Q.** And the Papp at 2 h (P-gp (MDR1))?
**A.** 41.2 ×10⁻⁶ cm/s

**Q.** And the efflux ratio at 2 h (P-gp (MDR1))?
**A.** 1.55

**Q.** What about the “% Total Peak Area, parent remaining” value [4] of the same compound?
**A.** 82.6%

**Q.** Which results are given for [2H]C1([2H])c2ncccc2C(=O)N1Cc1c(F)cc(-c2cccc3nn(C([2H])([2H])[2H])cc23)cc1F [compound 5]?
**A.** rM1 PAM AChmax (%) (rM1): 82%; EC50 (rM1; [5]): 249 nM; EC50 (rM1; [6]): > 30000 nM; fraction unbound at 6 h, 5 µM [1]: 0.026; fraction unbound at 6 h, 5 µM [2]: 0.119; fraction unbound at 6 h, 5 µM [3]: 0.044; Papp at 2 h (P-gp (MDR1)): 34.2 ×10⁻⁶ cm/s; efflux ratio at 2 h (P-gp (MDR1)): 1.3; % Total Peak Area, parent remaining [4]: 92.3%
